US20100113465A1, “7-AZASPIRO[3.5]NONANE-7-CARBOXAMIDE COMPOUNDS” (Pfizer Inc., priority 2008, published 2010)
Marks after values point to notes of the source that are not given here.

Experiments:
human FAAH = biological target: T1, human FAAH (Homo sapiens, UniProt O00519); assay: FAAH assay, human FAAH enzyme inhibition (kinact/Ki); format: biochemical; details: oleamide substrate 50 μM, 30° C., read-out: hFAAH kinact/Ki
T1 construct: made in house; host or cells: E. coli
T1 sequence (O00519 1-579): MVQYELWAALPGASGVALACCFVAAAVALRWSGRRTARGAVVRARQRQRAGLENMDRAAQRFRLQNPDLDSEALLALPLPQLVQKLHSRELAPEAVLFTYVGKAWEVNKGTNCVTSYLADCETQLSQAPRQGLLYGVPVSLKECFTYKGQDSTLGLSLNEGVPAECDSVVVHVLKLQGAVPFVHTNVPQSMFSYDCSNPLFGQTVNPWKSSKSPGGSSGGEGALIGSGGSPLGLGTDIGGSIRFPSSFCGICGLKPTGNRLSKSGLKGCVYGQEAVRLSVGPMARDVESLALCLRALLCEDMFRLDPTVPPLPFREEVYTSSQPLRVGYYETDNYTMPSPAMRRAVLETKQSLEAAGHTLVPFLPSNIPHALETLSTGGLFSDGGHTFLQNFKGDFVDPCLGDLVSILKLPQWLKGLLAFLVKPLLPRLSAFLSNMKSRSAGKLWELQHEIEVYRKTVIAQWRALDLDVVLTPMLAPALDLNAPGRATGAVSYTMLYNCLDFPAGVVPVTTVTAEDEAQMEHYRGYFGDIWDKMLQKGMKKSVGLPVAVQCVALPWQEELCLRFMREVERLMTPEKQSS
Procedure, shortened: (§1)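 Purified E. coli-expressed FAAH (1-4 nM) with oleamide at Km (50 μM), coupled GDH/NADH read at 340 nm over 90 min, 30° C, pH 7.4, 7.5% DMSO and EtOH. kobs from mono-exponential fits; kinact/Ki from kobs vs inhibitor slope, multiplied by two.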

rat FAAH = biological target: T2, rat FAAH (Rattus norvegicus, UniProt P97612); assay: FAAH assay, rat FAAH enzyme inhibition (kinact/Ki); format: biochemical; details: oleamide substrate 50 μM, 30° C., read-out: rFAAH kinact/Ki
T2 construct: made in house; host or cells: E. coli
T2 sequence (P97612 1-579): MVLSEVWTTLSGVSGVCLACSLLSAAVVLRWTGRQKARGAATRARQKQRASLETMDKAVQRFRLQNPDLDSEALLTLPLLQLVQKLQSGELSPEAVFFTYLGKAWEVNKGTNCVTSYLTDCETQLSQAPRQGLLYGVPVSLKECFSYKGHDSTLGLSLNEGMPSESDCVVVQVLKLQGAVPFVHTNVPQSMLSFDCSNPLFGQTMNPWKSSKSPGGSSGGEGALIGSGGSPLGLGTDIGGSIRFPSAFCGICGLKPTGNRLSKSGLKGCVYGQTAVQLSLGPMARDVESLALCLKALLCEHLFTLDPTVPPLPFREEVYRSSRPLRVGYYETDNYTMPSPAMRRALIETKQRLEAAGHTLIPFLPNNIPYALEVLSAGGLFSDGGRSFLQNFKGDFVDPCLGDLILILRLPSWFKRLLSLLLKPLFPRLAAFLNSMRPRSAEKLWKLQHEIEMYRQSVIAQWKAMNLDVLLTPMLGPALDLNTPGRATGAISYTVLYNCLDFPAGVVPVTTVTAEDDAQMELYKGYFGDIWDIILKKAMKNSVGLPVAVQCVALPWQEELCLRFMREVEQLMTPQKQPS
Procedure, shortened: as §1

Male Sprague-Dawley Rats [1] = assay: In vivo Complete Freund's Adjuvant (CFA) efficacy assay; design: species or system rat; key: (+) indicates the test compound was determined to be efficacious at 3 mpk, oral dosing; (−) indicates the test compound was determined to not be efficacious at 3 mpk, oral dosing; details: inhibition of allodynia vs vehicle, p<0.05
Male Sprague-Dawley Rats [2] = assay: as above; design: species or system rat; key: (+) indicates the test compound was determined to be efficacious at 3 mpk, oral dosing; (−) indicates the test compound was determined to not be efficacious at 3 mpk, oral dosing; details: 3 mpk, oral dosing; inhibition of allodynia (PWT) four hours postdose vs vehicle, p<0.05
Protocol: For additional information on the CFA efficacy assay, see Jayamanne et al., Brit. J. Pharmacol. 2006, 147, 281-288. Experiments were performed on adult Male Sprague-Dawley Rats (200 g-250 g). Inflammation was induced in the left hindpaw of the rat by an intra-plantar injection of 150 uL Complete Freund's Adjuvant (CFA) (SIGMA F5881). The CFA injection immediately induces local inflammation, paw swelling, and pain that persists for at least two weeks post-injection. Baseline paw withdrawal threshold (PWT) was measured to determine the percent inhibition of allodynia using a set of Von Frey Hairs on day 4 post injection as illustrated by the Dixon Up and Down Method (W. J. Dixon, Ann. Rev. Pharmacol. Toxicol. 1980, 20:441-462). […] Test compound was administered at a concentration of 3 mg/kg (mpk) orally with the dosing vehicle 5% N,N′-Dimethylacetamide (SIGMA D137510) and 95% (40% 2-hydroxypropyl-beta-cyclodextrin in water) (SIGMA H107). Following Dose administration PWT threshold was evaluated again at four hours postdose. The Sprague-Dawley rats used in this assay were purchased from Harlan, 8520 Allison Pointe Blvd., Indianapolis, Ind., 46250, U.S.A. Sprague-Dawley rats are an outbred breed of albino rats first produced by the Sprague Dawley farms in Madison, Wis., U.S.A.
Percent Inhibition of Allodynia was determined by the formula: […]
ΔPWT measurements were averaged for each treatment group and statistical comparisons between groups were made using ANOVA and Dunnett's two-tailed test. […]

| Compound | kinact/KI (human FAAH) [M⁻¹ s⁻¹] | kinact/KI (rat FAAH) [M⁻¹ s⁻¹] | CFA Efficacy (Male Sprague-Dawley Rats [1]; 1 mpk, oral dosing) | CFA Efficacy (Male Sprague-Dawley Rats [1]; 25 mpk, intraperitoneal dosing) | CFA Efficacy (Male Sprague-Dawley Rats [1]; 10 mpk, intraperitoneal dosing) | CFA Efficacy (Male Sprague-Dawley Rats [2]) |
| --- | --- | --- | --- | --- | --- | --- |
| Cc1cccc(C2CC3(CCN(C(=O)Nc4onc(C)c4C)CC3)C2)c1 [Example 7, N-(3,4-dimethylisoxazol-5-yl)-2-(3-methylphenyl)-7-azaspiro[3.5]nonane-7-carboxamide] | 2870 | 1620 | (−)^e | – | – | – |
| Cc1noc(NC(=O)N2CCC3(CC2)CC(c2cccc(Oc4ccc(C(F)(F)F)cn4)c2)C3)c1C [Example 2, N-(3,4-dimethylisoxazol-5-yl)-2-(3-{[5-(trifluoromethyl)pyridin-2-yl]oxy}phenyl)-7-azaspiro[3.5]nonane-7-carboxamide] | 1760 | 9460 | – | (+)^d | – | – |
| O=C(Nc1cccnn1)N1CCC2(CC1)CC(c1cccc(Oc3ncc(Br)cn3)c1)C2 [Example 9, 2-{3-[(5-bromopyrimidin-2-yl)oxy]phenyl}-N-pyridazin-3-yl-7-azaspiro[3.5]nonane-7-carboxamide] | 2450 | 1430 | – | – | (+)^c | – |
| COc1cccc(C2CC3(CCN(C(=O)Nc4onc(C)c4C)CC3)C2)c1 [Example 5, N-(3,4-dimethylisoxazol-5-yl)-2-(3-methoxyphenyl)-7-azaspiro[3.5]nonane-7-carboxamide] | 2190 | 741 | – | – | (+)^c | – |
| O=C(Nc1cccnn1)N1CCC2(CC1)CC(c1cccc(Oc3ccc(C(F)(F)F)cn3)c1)C2 [Example 1, N-pyridazin-3-yl-2-(3-{[5-(trifluoromethyl)pyridin-2-yl]oxy}phenyl)-7-azaspiro[3.5]nonane-7-carboxamide] | 1570 | 647 | – | – | (−)^c | – |
| Cc1noc(NC(=O)N2CCC3(CC2)CC(c2cccc(C(F)(F)F)c2)C3)c1C [Example 6, N-(3,4-dimethylisoxazol-5-yl)-2-[3-(trifluoromethyl)phenyl]-7-azaspiro[3.5]nonane-7-carboxamide] | 3060 | 3690 | (−)^e | – | – | – |
| O=C(Nc1cccnn1)N1CCC2(CC1)CC(c1cccc(Oc3ccc(Br)cn3)c1)C2 [Example 10, 2-{3-[(5-bromopyridin-2-yl)oxy]phenyl}-N-pyridazin-3-yl-7-azaspiro[3.5]nonane-7-carboxamide] | 2040 | 1820 | – | – | (−)^c | – |
| Cc1noc(NC(=O)N2CCC3(CC2)CC(c2cc(Cl)ccc2F)C3)c1C [Example 21, 2-(5-chloro-2-fluorophenyl)-N-(3,4-dimethylisoxazol-5-yl)-7-azaspiro[3.5]nonane-7-carboxamide] | 2700 | 1510 | – | – | – | (+) |
| Cc1noc(NC(=O)N2CCC3(CC2)CC(F)(c2cccc(OC(F)(F)F)c2)C3)c1C [Example 23, N-(3,4-dimethylisoxazol-5-yl)-2-fluoro-2-[3-(trifluoromethoxy)phenyl]-7-azaspiro[3.5]nonane-7-carboxamide] | 2820 | 1710 | – | – | – | (+) |
| Cc1ccc(C2CC3(CCN(C(=O)Nc4onc(C)c4C)CC3)C2)cc1C [Example 8, N-(3,4-dimethylisoxazol-5-yl)-2-(3,4-dimethylphenyl)-7-azaspiro[3.5]nonane-7-carboxamide] | 2820 | 1920 | (−)^e | – | – | – |
| O=C(Nc1noc2ccccc12)N1CCC2(CC1)CC(c1cccc(Oc3ccc(C(F)(F)F)cn3)c1)C2 [Example 3, N-1,2-benzisoxazol-3-yl-2-(3-{[5-(trifluoromethyl)pyridin-2-yl]oxy}phenyl)-7-azaspiro[3.5]nonane-7-carboxamide] | 1030 | 4920 | (−) | (+) | – | – |
